Source: ChEMBL document CHEMBL4145625 (J Med Chem, 2018)

Legend:
[1] = target: Phosphatidylinositol 4,5-bisphosphate 3-kinase catalytic subunit alpha isoform (Homo sapiens, UniProt P42336); test: Inhibition of PI3Kalpha (unknown origin) using PIP2 as substrate by Kinase-Glo assay
[2] = system: NCI-H460; test: cells; format: functional, cell-based; details: Homo sapiens, NCI-H460, 96 h;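 further: cytotoxicity determined with an MTT assay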
Description: Cytotoxicity against human NCI-H460 cells after 96 hrs by MTT assay

[3] = system: U-87 MG; test: Antitumor activity against Luc tagged human U87MG cells xenografted in BALB/c nude mouse glioblastoma orthotopic model assessed as tumor growth inhibition at 30 mg/kg, po administered daily for 5 days by MRI method relative to control; format: functional, U-87MG ATCC; details: 120 h, read-out: TGI

Phosphatidylinositol 4,5-bisphosphate 3-kinase catalytic subunit alpha isoform, sequence (P42336 whole entry, canonical isoform): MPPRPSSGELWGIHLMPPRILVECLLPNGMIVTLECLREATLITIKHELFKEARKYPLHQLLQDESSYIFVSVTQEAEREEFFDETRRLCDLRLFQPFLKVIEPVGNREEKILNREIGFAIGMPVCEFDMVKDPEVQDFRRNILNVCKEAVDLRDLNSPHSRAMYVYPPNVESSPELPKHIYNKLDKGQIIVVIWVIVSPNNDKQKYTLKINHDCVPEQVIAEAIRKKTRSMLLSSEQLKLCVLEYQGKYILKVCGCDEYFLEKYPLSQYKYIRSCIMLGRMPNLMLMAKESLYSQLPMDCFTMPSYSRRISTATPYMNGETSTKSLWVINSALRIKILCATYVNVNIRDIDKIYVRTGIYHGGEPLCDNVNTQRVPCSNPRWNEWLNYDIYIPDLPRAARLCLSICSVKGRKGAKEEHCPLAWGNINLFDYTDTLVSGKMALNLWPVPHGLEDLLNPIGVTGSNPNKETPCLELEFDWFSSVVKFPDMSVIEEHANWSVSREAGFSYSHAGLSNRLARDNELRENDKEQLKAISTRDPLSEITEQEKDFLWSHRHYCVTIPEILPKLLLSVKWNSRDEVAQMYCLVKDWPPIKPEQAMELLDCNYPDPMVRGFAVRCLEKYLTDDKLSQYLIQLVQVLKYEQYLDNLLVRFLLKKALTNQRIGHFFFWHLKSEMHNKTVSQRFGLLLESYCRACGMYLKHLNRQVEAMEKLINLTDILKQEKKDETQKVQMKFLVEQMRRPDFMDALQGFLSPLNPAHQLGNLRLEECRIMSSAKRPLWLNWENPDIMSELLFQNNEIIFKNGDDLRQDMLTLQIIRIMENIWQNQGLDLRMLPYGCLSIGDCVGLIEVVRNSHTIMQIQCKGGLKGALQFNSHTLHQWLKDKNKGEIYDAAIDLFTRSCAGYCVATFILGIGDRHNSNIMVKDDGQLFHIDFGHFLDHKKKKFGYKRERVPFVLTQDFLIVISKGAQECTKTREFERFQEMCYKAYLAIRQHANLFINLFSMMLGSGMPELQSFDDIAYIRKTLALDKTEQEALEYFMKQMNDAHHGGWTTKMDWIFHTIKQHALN

Structure (SMILES) | IC50 [1] | IC50 [2] | inhibition in vivo at 30 mg/kg [3]
CCNc1nc(C)c2cc(-c3cnc(OC)c(NS(=O)(=O)c4ccc(F)cc4F)c3)cc(OC3CCOCC3)c2n1 | 1.5 nM | 240 nM | 
COc1ccc(CN2CCNCC2)c(OC)c1OC [TRIMETAZIDINE] |  |  | 98.1%
COc1ncc(-c2cc(OCC3CC3)c3nc(N)nc(C)c3c2)cc1NS(=O)(=O)c1ccc(F)cc1F | 1.4 nM | 200 nM | 
COc1ncc(-c2cc(OC3CCOCC3)c3nc(N)nc(C)c3c2)cc1NS(C)(=O)=O | 2.6 nM | 860 nM | 
CNc1nc(C)c2cc(-c3cnc(OC)c(NS(=O)(=O)c4ccc(F)cc4F)c3)cc(OC3CCOC(C)(C)C3)c2n1 (centres undefined) | 1.8 nM | 250 nM | 
